ChEMBL document CHEMBL1158408, “Large-scale application of high-throughput molecular mechanics with Poisson-Boltzmann surface area for routine physics-based scoring of protein-ligand complexes” (J Med Chem, 2009)
pKi: −log10 of the molar value.

Biological target: T1, Tyrosine-protein phosphatase non-receptor type 1 (Homo sapiens, UniProt P18031)
T1 sequence (P18031 whole entry): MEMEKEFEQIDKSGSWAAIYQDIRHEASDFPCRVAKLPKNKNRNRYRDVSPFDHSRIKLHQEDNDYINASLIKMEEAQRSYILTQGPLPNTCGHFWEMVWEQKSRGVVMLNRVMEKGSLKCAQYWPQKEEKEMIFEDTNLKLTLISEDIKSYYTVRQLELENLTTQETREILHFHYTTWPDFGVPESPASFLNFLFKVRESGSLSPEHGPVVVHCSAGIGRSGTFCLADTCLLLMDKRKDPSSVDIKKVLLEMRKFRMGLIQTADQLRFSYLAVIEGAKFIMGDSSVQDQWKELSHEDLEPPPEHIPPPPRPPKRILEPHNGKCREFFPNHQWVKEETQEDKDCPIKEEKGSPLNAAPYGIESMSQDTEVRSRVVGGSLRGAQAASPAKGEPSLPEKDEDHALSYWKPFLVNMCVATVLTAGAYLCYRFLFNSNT

pKi	Compound
5.20	COC(=O)c1c(O)cccc1OC/C=C/c1ccc(F)c(-c2cc(C(=O)O)no2)c1
4.20	O=C(O)C(=O)Nc1sc2c(c1C(=O)O)CCN(Cc1ccccc1)C2
4.90	COC(=O)c1c(O)cccc1OC/C=C/c1ccc2c(c1)-c1onc(C(=O)O)c1CC2
4.80	COC(=O)c1c(O)cccc1OC/C=C/c1cccc(-c2onc(C(=O)O)c2N)c1
4.40	CCc1ccccc1N(C(=O)C(=O)O)c1ccccc1C(=O)O
4.30	COC(=O)c1c(O)cccc1OCCNc1cccc(-c2cc(C(=O)O)no2)c1
4.40	O=C(O)C(=O)N(c1ccc2ccccc2c1)c1ccccc1C(=O)O
4.80	O=C(O)C(=O)N(c1ccccc1C(=O)O)c1ccccc1N1CCCCC1
3.00	O=C(O)c1nc2ccccc2s1
3.50	Nc1c(C(=O)O)noc1-c1ccccc1
3.10	CC(C)(C)OC(=O)Nc1ccc(O)c(-c2cc(C(=O)O)no2)c1
4.80	O=C(O)c1cc(-c2cccc(/C=C/COc3cccc(O)c3[N+](=O)[O-])c2)on1
4.10	O=C(O)c1cc(-c2cccc(-c3cccc(-c4cc(C(=O)O)no4)c3)c2)on1
5.70	O=C(O)C(=O)N(c1cc(O)ccc1C(=O)O)c1cccc2ccc(O)cc12
5.00	O=C(O)C(=O)N(c1ccccc1C(=O)O)c1cc([N+](=O)[O-])cc2ccccc12
4.70	O=C(O)C(=O)N(c1ccccc1C(=O)O)c1ccccc1N1CCCC(CO)C1 (centres undefined)
5.20	CC(=O)NC(Cc1ccc(N(C(=O)C(=O)O)c2ccccc2C(=O)O)c(CCO)c1)C(=O)O (centres undefined)
3.30	CCCCCNCc1cccc(-c2cc(C(=O)O)no2)c1
5.90	O=C(O)c1ccc(O)cc1-n1c(=O)c(=O)oc2ccccc21

pKi	Compound
5.00	COC(=O)c1c(O)cccc1OCCCCCN1CCc2ccc(N(C(=O)C(=O)O)c3ccccc3C(=O)O)cc2C1
5.40	COC(=O)c1cc2ccccc2c(N(C(=O)C(=O)O)c2ccccc2C(=O)O)c1O
3.90	O=C(O)c1noc(-c2cccc(I)c2)c1CO
4.30	O=C(O)C(=O)N(c1ccccc1/C=C/CO)c1ccccc1C(=O)O
5.40	O=C(O)C(=O)N(c1cc(Cl)ccc1C(=O)O)c1cccc2ccc(O)cc12
4.10	CC(=O)N1CCC(C(=O)Nc2cccc(-c3cc(C(=O)O)no3)c2)CC1
3.60	COC(=O)c1c(O)cccc1OCCCC(=O)Nc1cccc(-c2cc(C(=O)O)no2)c1
3.90	COC(=O)c1c(O)cccc1OC(CO)CCc1cc(-c2cc(C(=O)O)no2)ccc1F (centres undefined)
5.20	CNC(=O)c1c(O)cccc1OC/C=C/c1cccc(-c2cc(C(=O)O)no2)c1
5.40	NC(=O)c1ccc2cccc(N(C(=O)C(=O)O)c3ccccc3C(=O)O)c2c1
5.10	O=C(O)C(=O)N(c1cc([N+](=O)[O-])ccc1C(=O)O)c1cccc2ccc(O)cc12
5.10	O=C(O)C(=O)N(c1ccccc1C(=O)O)c1c(O)ccc2ccccc12
3.20	COc1ccc2c(c1)-c1onc(C(=O)O)c1CC2
4.00	O=C(O)C(=O)N(c1ccc2c(c1)OCCO2)c1ccccc1C(=O)O
2.50	Nc1ccc(-c2cc(C(=O)O)no2)cc1
4.40	Cn1ccc2c(N(C(=O)C(=O)O)c3ccccc3C(=O)O)cccc21
3.80	O=C(O)C(=O)N(c1ccccc1C(=O)O)c1cccc2ccccc12
4.90	O=C(O)C(=O)N(c1ccccc1CCO)c1ccccc1C(=O)O

Continued, compound first:

Compound	pKi
CCc1cc(CC(NC(C)=O)C(=O)NCCCCOc2cccc(O)c2C(=O)O)ccc1N(C(=O)C(=O)O)c1ccccc1C(=O)O (centres undefined)	7.50
O=C(O)C(=O)Nc1sc2c(c1C(=O)O)CCNC2	4.30
CCCC[C@H](NC(=O)CCCCNC(=O)C(Cc1ccc(N(C(=O)C(=O)O)c2ccccc2C(=O)O)c(CC)c1)NC(C)=O)C(=O)O (some centres undefined)	7.00
CCc1cc(CC(NC(C)=O)C(=O)NCCCCC(=O)N[C@@H](CCCCN)C(=O)O)ccc1N(C(=O)C(=O)O)c1ccccc1C(=O)O (some centres undefined)	6.00
CCc1cc(CC(NC(C)=O)C(=O)NCCCCC(=O)N[C@@H](CCS(C)(=O)=O)C(=O)O)ccc1N(C(=O)C(=O)O)c1ccccc1C(=O)O (some centres undefined)	6.40
C=CCOC(=O)N[C@H](Cc1ccc(N(C(=O)C(=O)O)c2ccccc2C(=O)O)cc1)C(=O)N[C@H](C)c1ccc([N+](=O)[O-])cc1	5.40
CCCCCNC(=O)[C@H](Cc1ccc(N(C(=O)C(=O)O)c2ccccc2C(=O)O)c(/C=C/C(N)=O)c1)NC(=O)OC(C)(C)C	5.90
CCCC[C@H](NC(=O)C(Cc1ccc(N(C(=O)C(=O)O)c2ccccc2C(=O)O)c2ccccc12)NC(=O)OC)C(=O)OC (some centres undefined)	6.40
CCc1cc(CC(NC(C)=O)C(=O)NCCCCC(=O)NC(Cc2nccs2)C(=O)O)ccc1N(C(=O)C(=O)O)c1ccccc1C(=O)O (centres undefined)	6.20
CCc1cc(CC(NC(C)=O)C(=O)NCCCCC(=O)NC(Cc2ccc(Cl)cc2)C(=O)O)ccc1N(C(=O)C(=O)O)c1ccccc1C(=O)O (centres undefined)	6.20
CCCCCNC(=O)[C@@H](Cc1ccc(N(C(=O)C(=O)O)c2ccccc2C(=O)O)c(/C=C/C(N)=O)c1)NC(=O)NC(C)C	6.50
CCc1cc(CC(NC(C)=O)C(=O)N[C@H](Cc2ccc([N+](=O)[O-])cc2)C(=O)NC)ccc1N(C(=O)C(=O)O)c1ccccc1C(=O)O (some centres undefined)	5.70
CCc1cc(CC(NC(C)=O)C(=O)NCCCCC(=O)N[C@@H](Cc2ccc(O)cc2)C(=O)O)ccc1N(C(=O)C(=O)O)c1ccccc1C(=O)O (some centres undefined)	6.80
COC(=O)c1c(O)cccc1OCCCCNC(=O)C(Cc1ccc(N(CC(Cc2ccccc2)C(=O)O)C(=O)C(=O)O)cc1)NC(=O)OC(C)(C)C (centres undefined)	5.30
CCCCCNC(=O)[C@H](Cc1ccc(N(C(=O)C(=O)O)c2ccccc2C(=O)O)cc1)NC(=O)[C@H](Cc1ccc(C(=O)c2ccccc2)cc1)NC(=O)OC(C)(C)C	5.90
CCC(CN(C(=O)C(=O)O)c1ccc(CC(NC(=O)OC(C)(C)C)C(=O)NCCCCOc2cccc(O)c2C(=O)OC)cc1)C(=O)O (centres undefined)	5.80
COC(=O)c1c(O)cccc1OCCCCNC(=O)[C@@H](Cc1ccc(OCC(=O)O)c(C(=O)O)c1)NC(=O)OC(C)(C)C	5.70
COC(=O)N[C@H](Cc1ccc(N(C(=O)C(=O)O)c2ccccc2C(=O)O)cc1)C(=O)NCCCCOc1cc(OC(C)C)cc(O)c1C(=O)OC	5.40
COC(=O)N[C@H](Cc1ccc(N(C(=O)C(=O)O)c2ccccc2C(=O)O)cc1)C(=O)NCCCCOc1cc(-c2ccccc2)cc(O)c1C(=O)OC	6.00
CCc1cc(CC(NC(C)=O)C(=O)NCCCCC(=O)NC(Cc2cccs2)C(=O)O)ccc1N(C(=O)C(=O)O)c1ccccc1C(=O)O (centres undefined)	6.40
CCc1cc(CC(NC(C)=O)C(=O)NCCCCC(=O)N[C@@H](CCC(N)=O)C(=O)O)ccc1N(C(=O)C(=O)O)c1ccccc1C(=O)O (some centres undefined)	6.70

Compound	pKi
O=C(O)/C=N/OCc1ccccc1	2.50
CC[C@H](C)[C@H](NC(=O)CCCCNC(=O)[C@@H](Cc1ccc(NC(=O)C(=O)O)c(C(=O)O)c1)NC(C)=O)C(=O)O	4.70
CCCCCNC(=O)C(Cc1ccc(N2CCCCC2)c(N(C(=O)C(=O)O)c2ccccc2C(=O)O)c1)NC(C)=O (centres undefined)	4.70
CCc1cc(CC(NC(C)=O)C(=O)NCCCCC(=O)N[C@@H](CCSC)C(=O)O)ccc1N(C(=O)C(=O)O)c1ccccc1C(=O)O (some centres undefined)	7.20
CCCCCN1C(=O)C(=O)N(C(=O)NC(C)C)[C@H](Cc2ccc(Nc3ccccc3C(=O)O)c(CCC(N)=O)c2)C1=O	5.70
COCCC(CN(C(=O)C(=O)O)c1ccc(CC(NC(=O)OC(C)(C)C)C(=O)NCCCCOc2cccc(O)c2C(=O)OC)cc1)C(=O)O (centres undefined)	5.10
CCc1cc(CC(NC(C)=O)C(=O)NCCCCC(=O)NC(C(=O)O)c2c[nH]c3ccccc23)ccc1N(C(=O)C(=O)O)c1ccccc1C(=O)O (centres undefined)	6.60
CC[C@H](C)[C@H](NC(=O)CCCCNC(=O)C(Cc1ccc(N(C(=O)C(=O)O)c2ccccc2C(=O)O)c2ccccc12)NC(C)=O)C(=O)O (some centres undefined)	6.70
C=CCOC(=O)N[C@@H](Cc1ccc(N(C(=O)C(=O)O)c2ccccc2C(=O)O)cc1)C(=O)NCCOCCOc1cccc(O)c1C(=O)OC	6.40
COC(=O)c1c(O)cccc1OCCCCNC(C)CCc1ccc(N(C(=O)C(=O)O)c2ccccc2C(=O)O)c2ccccc12 (centres undefined)	6.50
CN(C(=O)[C@@H](Cc1ccc(N(C(=O)C(=O)O)c2ccccc2C(=O)O)cc1)NC(=O)OC(C)(C)C)C1CCC(C(=O)O)CC1 (some centres undefined)	5.00
CCc1cc(CC(NC(C)=O)C(=O)NCCCCC(=O)N[C@@H](Cc2ccccc2)C(=O)O)ccc1N(C(=O)C(=O)O)c1ccccc1C(=O)O (some centres undefined)	6.90
CCc1cc(CC(NC(C)=O)C(=O)NCCCCC(=O)N2CCC[C@@H]2C(=O)O)ccc1N(C(=O)C(=O)O)c1ccccc1C(=O)O (some centres undefined)	5.70
CCc1cc(CC(NC(C)=O)C(=O)NCCCCC(=O)N[C@@H](Cc2ccc([N+](=O)[O-])cc2)C(=O)O)ccc1N(C(=O)C(=O)O)c1ccccc1C(=O)O (some centres undefined)	6.40
COC(=O)c1c(O)cccc1OCCCCNCCCc1ccc(N(C(=O)C(=O)O)c2ccccc2C(=O)O)c2ccccc12	6.20
CC[C@H](C)[C@H](NC(=O)CCCCNC(=O)[C@@H](Cc1ccc(N(C(=O)C(=O)O)c2ccccc2C(=O)O)cc1)NC(C)=O)C(=O)O	5.40
CC(=O)NC(Cc1ccc(N(C(=O)C(=O)O)c2ccccc2C(=O)O)c2ccccc12)C(=O)NCCO (centres undefined)	4.90
CC(=O)NC(Cc1ccc(N(C(=O)C(=O)O)c2ccccc2C(=O)O)c2ccccc12)C(=O)NCCCN1CCCC1=O (centres undefined)	5.10
CCc1cc(CC(NC(C)=O)C(=O)NCCCCC(=O)N[C@@H](CSCc2ccccc2)C(=O)O)ccc1N(C(=O)C(=O)O)c1ccccc1C(=O)O (some centres undefined)	6.20
CCCCCCNC(=O)Nc1ccc(N(C(=O)C(=O)O)c2ccccc2C(=O)O)c2ccccc12	5.20
CCc1cc(CC(NC(C)=O)C(=O)NCCCCC(=O)N[C@@H](CCSC)C(=O)O)ccc1N(C(=O)C(=O)O)c1cc(Cl)ccc1C(=O)O (some centres undefined)	7.20
